Assay results from article PMC9137479, “The Class A β-Lactamase Produced by Burkholderia Species Compromises the Potency of Tebipenem against a Panel of Isolates from the United States” (Antibiotics, 2022).

What was measured:
AmpC1 = target: T1, AmpC1 (Burkholderia multivorans, UniProt A0A0H3KQ39); test: steady-state inhibition kinetics; format: biochemical; conditions: covalent acyl-enzyme; not hydrolysed; 10 mM PBS pH 7.4, ~25 °C (stated for hydrolysis curves)
T1 construct: gene ampC; purified class C beta-lactamase
Source text: steady-state inhibition kinetics on AmpC1

PenA1 = target: T2, PenA1 (Burkholderia multivorans, UniProt A0A0H3KN52); test: steady-state inhibition kinetics; format: biochemical; conditions: read-out: PenA1; covalent acyl-enzyme; slow substrate; partition ratio method at 15 min; 10 mM PBS pH 7.4, ~25 °C (stated for hydrolysis curves)
T2 construct: gene ampC; purified class A beta-lactamase
Source text: steady-state inhibition kinetics on PenA1

T2 sequence (A0A0H3KN52 entry or part of it): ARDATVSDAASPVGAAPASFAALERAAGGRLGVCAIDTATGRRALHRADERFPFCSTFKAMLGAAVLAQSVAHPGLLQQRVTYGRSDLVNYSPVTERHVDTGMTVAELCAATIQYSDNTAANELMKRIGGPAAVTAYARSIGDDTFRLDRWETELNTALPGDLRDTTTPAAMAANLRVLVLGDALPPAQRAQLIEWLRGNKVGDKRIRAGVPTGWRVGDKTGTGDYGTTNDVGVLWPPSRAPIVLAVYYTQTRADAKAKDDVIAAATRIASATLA
T1 sequence (A0A0H3KQ39 entry or part of it): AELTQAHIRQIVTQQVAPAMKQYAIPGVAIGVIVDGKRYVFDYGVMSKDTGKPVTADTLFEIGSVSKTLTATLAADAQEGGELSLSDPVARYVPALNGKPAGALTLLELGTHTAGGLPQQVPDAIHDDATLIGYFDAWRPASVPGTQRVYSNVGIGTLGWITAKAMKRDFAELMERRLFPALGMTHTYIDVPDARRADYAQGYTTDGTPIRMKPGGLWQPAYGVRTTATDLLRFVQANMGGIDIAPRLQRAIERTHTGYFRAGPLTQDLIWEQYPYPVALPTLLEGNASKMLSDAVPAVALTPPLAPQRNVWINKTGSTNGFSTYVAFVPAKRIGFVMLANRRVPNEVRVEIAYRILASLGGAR

C[C@@H](O)[C@H]1C(=O)N2C(C(=O)O)=C(SC3CN(C4=NCCS4)C3)[C@H](C)[C@H]12 [tebipenem] was tested, and the Ki (AmpC1) was 22 ± 2 µM and the Ki (PenA1) was 4.7 ± 0.5 µM.
